“Also recorded” adds a separate entry of the source.
Assays:
[1] = biological target: T1, human PD-L1 (Homo sapiens, UniProt Q9NZQ7); assay: Bio-layer interferometry binding to biotinylated PD-L1; conditions: read-out: dissociation constant KD
T1 construct: biotin (biotinylated); purchased R&D Systems (Minneapolis, Minnesota)
Method: (§1) For each experiment, the BLItz machine was fitted with a fresh streptavidin biosensor tip (FortéBio). All tips were solvated in PBS buffer for 15-30 min before the experiments. The peptide was solvated at a concentration of approximately 1 mg/ml. The precise concentration of this stock solution (0.922 mg/ml) was obtained using the Pierce BCA Protein Assay Kit (Thermo Fisher Scientific) and multiple dilutions were made (corresponding to […]). A solution of biotinylated PD-L1 was applied to the biosensor tip during the loading phase of each experiment. PBS buffer (ix) was used for the baseline.

[2] = tested on: CT26 murine colon carcinoma cells; assay: MTT viability of CT26 cells without T cells; type: cell-based, mouse
Method: Evaluation of the Effect of PD-L1ip3 Peptide or Gene Transduction by Ad-PD-L1ip3 on Murine Colon Carcinoma Cells in Cell Culture The CT26 murine colon carcinoma cells (1,000 cells/well) were seeded into 96-well plate.
After 24 h, these cells were treated directly with PD-L1ip3 in peptide form (0.1-10 μg/ml) or indirectly with the PD-L1ip3 gene by Ad-PD-L1ip3 transduction (10, 20 and 50 MOI). The growth of the cells was evaluated by MTT assay 24-72 h after the treatments as described previously.
To evaluate therapeutic potential and cytotoxicity of the PD-L1ip3 peptide and transduction by Ad-PD-L1ip3, cell viability of CT26 cells was analyzed using MTT assay in the presence of mIFNγ (25 ng/ml), which was used to increase PD-L1 expression in cancer cells. The scrambled sequence version of PD-L1ip3 (PD-L1ip3SC) and the adenovirus carrying the corresponding scrambled sequence gene (Ad-PD-L1ip3SC) were used as negative controls.

[3] = tested on: CT26 murine colon carcinoma cells; assay: T cell-induced death of CT26 cells in co-culture with antigen-primed CD8+ T cells (flow cytometry); type: cell-based, mouse; conditions: peptide 10 μM, CT26:T cell 1:16
Method: a. Generation of CT26 cell antigen-specific CD8^+ T cells in vivo: First, the mice were subcutaneously (SQ) injected with CT26 cell lysate (0.5×10^6 cells/mouse in 200 μl PBS) at Day 0. JAWSII immature dendritic cells and CT26 cells previously irradiated with an X-ray dose of 100 Gy were cocultured at a 1:1 ratio for 48 h with an additional treatment of LPS (1 μg/ml). The cells (0.5×10^6 cells/mouse in 200 μl PBS) were collected and administered IV via tail vein to the mice at Day 7. At Day 21, the splenocytes were harvested and the CT26 antigen-specific CD8^+ T cells were labeled using MojoSort™ Mouse CD8 T Cell Isolation Kit (Biolegend, San Diego, CA) and isolated using magnetic beads-based separation protocol with MACS® Column (Miltenyi Biotec, Bergisch Gladbach, Germany) according to the manufacturer's instructions.
b. Evaluation of T cell-induced death of colon carcinoma cells in co-culture: Permanently GFP-expressing CT26 cells (GFP-CT26) produced by GFP-lentivirus vector transduction were seeded into 12 well-plate (1×10^4 cells/well) in the presence of murine interferon gamma (mIFNγ) at 25 ng/ml for 24 h. […] The effect of PD-L1ip3 in peptide form or gene transduction by Ad-PD-L1ip3 on CT26 cell death was analyzed by flow cytometry using LIVE/DEAD™ Fixable Violet Dead Cell Stain Kit (Invitrogen Corp). […]

[4] = tested on: CT26 cell tumors; assay: CT26 subcutaneous allograft tumor growth in Balb/c mice; type: in vivo, mouse
Method: The anti-tumor effect of Ad-PD-L1ip3 and PD-L1ip3 in peptide form was evaluated in Balb/c mice using a CT26 murine colon carcinoma allograft model. The CT26 cells were transduced with 100 MOI of Ad-PD-L1ip3 or Ad-PD-L1ip3SC. At 24 h after transduction, the cells were suspended into 0.6% agarose dissolved in RPMI 1640. After filling agarose-cell mixture into 1 ml syringe equipped with 27G needle, it was solidified on ice. Mice were anesthetized with isoflurane and injected subcutaneously into the back with a 5×10^5 CT26 cells in 50 μl cell-agarose mixture. The intraperitoneal administration of PD-L1ip3 peptide (10 mg/kg) was carried out at 1 week after CT26 inoculation for 13 days (every day, totaling 13 injections). The PBS control was injected intraperitoneally with the same schedule. For the pre-immunization study, CT26 lysate (1×10^6 cells/100 μl PBS) were injected subcutaneously, 3 times with 1-week interval. The CT26 lysate was made by 3 times freeze-thaw cycles using liquid nitrogen. The mouse body weights were monitored at 2-day intervals. All mice were sacrificed […] after CT26 inoculation by cervical dislocation after exposure to saturated C02. The tumor size was measured by caliper every 2 days and the volume was calculated using the formula 0.5×(short diameter)^2×(long diameter). The tumors were weighed and fixed in 10% formalin for histological analysis.

[5] = tested on: H1299 human non-small cell lung carcinoma cell line; assay: Co-culture of activated Jurkat cells with H1299 lung cancer cells, cell death by flow cytometry; type: cell-based; conditions: for cell death in H1299 cells: Jurkat co-culture, 48 hours; for increase in cell death in H1299 cells: co-cultured with nonspecifically activated Jurkat cells, preliminary data
Method: (§2) • H1299 human non-small cell lung carcinoma cell line (ATCC) • Jurkat cells (Human T lymphoblasts, ATCC) • Primary cultured murine CD8^+ T cell primed with H1299 cell lysate (H1299 cell antigens)
Co-culture assay procedure. Dead cell populations were measured by flow cytometry at 48 hours post-co-culture using propidium iodide (PI) staining.

[6] = tested on: H1299 human non-small cell lung carcinoma cell line; assay: Co-culture of H1299 cell antigen-specific T cells with H1299 lung cancer cells, cell death by flow cytometry; type: cell-based; conditions: for cell death in H1299 cells: antigen-specific T cell co-culture, 48 hours
Source text: as §2
Mice were immunized with H1299 cells via tail vein injection. T cells were extracted from spleen, purified, and expanded by co-culturing with dendritic cells (DCs) stimulated with H1299 cell lysate. Expanded T cells were used in co-culture assay.

[7] = tested on: murine LLC lung carcinoma cells; assay: Cytotoxicity of antigen-primed CD8+ T cells toward LLC cells in co-culture; type: cell-based, mouse; conditions: 10 μM, 1:16 ratio, 18 and 36 hrs; positive control anti-PD-L1 antibody
Method: Generation of LLC cell antigen primed CD8^+ T cells in vivo: Mice were subcutaneously injected with LLC lysate (0.5×10^6 cells/mouse in 100 μl) at Day 0. X-ray (100 Gy) irradiated LLC cells were cocultured with JAWSII immature dendritic cells (JAWS-irrLLC) at a 1:1 ratio for 48 hrs in the presence of LPS (1 μg/ml). The cells were then intravenously injected into mice via tail vein (0.5×10^4 cells/mouse in 200 μl) at Day 7. At Day 21, the splenocytes were harvested and CD8^+ T cells (AP-CD8^+ T cells) were isolated using commercially available isolation kit.
Evaluation of T cell-induced death of lung carcinoma cells in co-culture: Permanently GFP-expressing LLC cells (1×10^4 cells) were treated with murine IFNγ (25 ng/ml) for 48 hrs. The cells were treated with 10 μM PD-L1ip3. PD-L1ip3SC (10 μM) and mouse anti-PD-L1 antibody (αPD-L1: 0.5 or 1.0 μg/ml) were used as control. The cells were then cocultured with antigen primed CD8^+ T cells 1:16 ratio. The cytotoxicity of AP-CD8^+ T cells toward LLC cells at 18 and 36 hrs after coculture was determined by flow cytometry.

[8] = biological target: T2, Biotinylated human PD-L1 (R&D Systems) (human, UniProt Q9NZQ7 19-239, limits assumed, biotinylated (site not stated)); assay: bio-layer interferometry (BLItz), biotinylated PD-L1 on streptavidin tip, peptide in solution; negative control; scrambled peptide, negative control
T2 construct: Bought reagent, loaded on a streptavidin biosensor tip for bio-layer interferometry
Method: as §1
The peptide was synthesized commercially and the dissociation constant was determined by bio-layer interferometry.

[9] = peptide form 0.1-10 μg/ml, mIFNγ 25 ng/ml, 24-72 h, no T cells

T2 sequence (Q9NZQ7 19-239 limits assumed): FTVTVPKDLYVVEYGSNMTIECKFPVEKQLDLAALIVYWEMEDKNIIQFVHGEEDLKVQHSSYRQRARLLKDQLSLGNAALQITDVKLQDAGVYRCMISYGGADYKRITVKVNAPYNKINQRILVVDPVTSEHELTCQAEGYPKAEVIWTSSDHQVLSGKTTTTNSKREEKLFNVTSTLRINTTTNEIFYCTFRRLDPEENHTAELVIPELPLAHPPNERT

| Molecule | Kd [1] [mM] | viability of CT26 cells (MTT) [2, 9] | T cell-induced cell death of CT26 cells vs PBS [3] | average tumor volume ([4]; mice pre-treated with CT26 cell lysate 3 times, Ad 100 MOI, peptide 10 mg/kg/day i.p., untreated 729.6±310.3) [mm^3] | change in tumor growth vs untreated CT26 cells ([4]; no lysate pretreatment) | cell death in H1299 cells [5] | increase in cell death in H1299 cells [5] [%] | cell death in H1299 cells [6] | increase in cell death in H1299 cells ([6]; co-cultured with H1299 cell antigen-primed T lymphocytes) [%] | cytotoxicity of antigen-specific CD8+ T cells toward LLC cells [7] | viability of CT26 cells (MTT) ([2]; 10 μg/ml, 72 h, not significantly different from PBS) | Kd [8] [mM] |
| --- | --- | --- | --- | --- | --- | --- | --- | --- | --- | --- | --- | --- |
| H-GTRLKPLIICVQWPGL-OH [PD-L1ip3] | 0.033 ± 0.003 | not affected | markedly increased | 607.5±220.1 | nor PD-L1ip3 in peptide form alone showed a statistically significant change in tumor growth | only minor increases of cell death | 30 | clear increases of cell death | 50 | Increased; also recorded: as good as or better than the positive control | – | – |
| H-VLIKIPWLRLPGCGTQ-OH [PD-L1ip3SC, reference compound] | – | not affected | – | – | – | only minor increases of cell death | 30 | – | – | – | slight decrease of cell viability | – |
| PLDIRDRVHVEKSAAS [PD-L1ip4] | – | – | – | – | – | did not alter T cell-dependent death | – | did not alter T cell-dependent death | – | – | – | – |
| VLIKIPWLRLPGCGTQ (Negative control in BLI; also called scrambled peptide) [PD-L1ip3SC (scrambled analogue of PD-L1ip3)] | – | – | – | – | – | – | – | – | – | – | – | ~50 |
